Test system: paradoxical MEK/ERK pathway activation in NRAS Q61K Sbcl2 melanoma cells
Assay: Vemurafenib induced paradoxical MEK/ERK activation, Western blotting
Format: cell-based, human
Conditions: 1 μM, control peptide treated Sbcl2 cells

CCCS(=O)(=O)Nc1ccc(F)c(C(=O)c2c[nH]c3ncc(-c4ccc(Cl)cc4)cc23)c1F [vemurafenib] was tested, and the “effect on pMEK and pERK levels” value was “induces paradoxical MEK/ERK pathway activation”.
